Experimental data: PMC6748986, “Potent modulation of the CepR quorum sensing receptor and virulence in a Burkholderia cepacia complex member using non-native lactone ligands” (Scientific Reports, 2019)
Positions count from the first letter of the chain named. Read-outs that look alike come from different tables or passages of the source.

Assays:
CepR [1] = target: T1, CepR (Burkholderia multivorans, UniProt Q93PF7); experiment: CepR antagonism in B. multivorans cepI::lacZ reporter (Bm-reporter), competition against C8-AHL; format: cell-based; details: for IC50: read-out: IC50; for Inh% (100-Act%): screening conc. 100 μM
T1 sequence (Q93PF7 1-239): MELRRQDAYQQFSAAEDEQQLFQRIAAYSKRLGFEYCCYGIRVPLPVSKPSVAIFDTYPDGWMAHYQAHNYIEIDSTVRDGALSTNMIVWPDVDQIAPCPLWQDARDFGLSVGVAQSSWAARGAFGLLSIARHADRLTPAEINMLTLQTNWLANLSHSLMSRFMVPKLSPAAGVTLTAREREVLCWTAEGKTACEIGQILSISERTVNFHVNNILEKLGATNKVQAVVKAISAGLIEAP
Text: (§1) We next sought to assess if the CepR modulators identified in the Ec-reporter maintained their activities in a member of the Bcc. For these studies, we generated a B. multivorans cepI::lacZ reporter organism (Bm-reporter) using standard allelic exchange methods (see Methods). Along with B. cenocepacia, B. multivorans is one of the most commonly isolated Bcc members[6],[44]. We note that small molecules must contend with a different cellular environment in the native organism relative to E. coli[48]; however, as both CepR and the cepI promoter are highly conserved among Bcc species (Fig. S3), we reasoned that the majority of compounds identified in the Ec-reporter (containing B. cenocepacia versions of the cepI promoter and the cepR gene) would maintain their relative activity profiles in CepR in B. multivorans. […] Similar to the Ec-reporter, CepR binding to the cepI promoter then induces β-galactosidase production, allowing for the quantitation of CepR activity. Using the Bm-reporter organism, we observed robust activity for CepR in response to C8-AHL (EC50 = 0.7 nM, Table 3).
(§2) The B. multivorans cepI::lacZ strain was used to obtain dose-response data for CepR in response to synthetic AHLs. Overnight cultures of B. multivorans cepI::lacZ were grown in LB medium at 37 °C with shaking (225 rpm). Aliquots (200 μL) of a 1:10 dilution of this overnight culture were plated into 96-well plates containing varying concentrations of compound, and then grown for 4 h at 37 °C with shaking (225 rpm). β-galactosidase production was measured as described above for E. coli, with the following changes: permeabilized cells were incubated at 25 °C with substrate CPRG for ~10 min until positive control wells developed a deep red color. For agonism assays, synthetic compound was screened alongside and compared to the native ligand, C8-AHL (100 μM). For antagonism assays, the concentration of native ligand utilized was 5 nM (approximately equal to twice its EC50 value).

CepR [2] = target: T2, CepR (Burkholderia cenocepacia, UniProt B4EMD0); experiment: CepR antagonism in E. coli β-galactosidase reporter (Ec-reporter), competition against C8-AHL; format: cell-based, B. cenocepacia; details: for Inh% (100-Act%): screening conc. 100 μM
T2 sequence (B4EMD0 1-239): T1 sequence (Q93PF7 1-239) with R5W, S51A, H69Q, S84N, Q95R, A97D
Summary of the method: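 CepR antagonism was measured in E. coli JLD271 (∆sdiA) carrying pJN105-cepR, which expresses B. cenocepacia CepR from an arabinose-inducible pBAD promoter, and pSC11-cepI, which fuses lacZ to the cepI promoter. Induced cells were grown 4 h with compound and 10 nM C8-AHL. β-Galactosidase activity was then read by CPRG cleavage at 37 °C after Z Buffer permeabilization.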

CepR [3] = target: T1, CepR; experiment: CepR agonism in B. multivorans cepI::lacZ reporter (Bm-reporter); format: cell-based; details: Table S4, Bm-reporter; screening conc. 100 μM
Text: as §1, §2

CepR [4] = target: T2, CepR; experiment: CepR agonism in E. coli β-galactosidase reporter (Ec-reporter) JLD271 [pJN105-cepR + pSC11-cepI]; format: cell-based, B. cenocepacia; details: for Act%: Table S2, Ec-reporter, screening conc. 100 μM; for Maximal Activation (%): activity for 100 μM C8-AHL set to 100%, error ±10%
Summary of the method: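 E. coli JLD271 (ΔsdiA) carrying arabinose-inducible CepR (27 mM L-arabinose) and cepI-lacZ fusion, grown 4 h with compound; β-galactosidase measured by CPRG cleavage at 37 °C (~30 min), normalized to OD600. Agonism compared with C8-AHL at 100 μM; screen at 100 μM or solubility limit, then dose-response; ≥3 trials.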

CepR [5] = tested on: CepR; set-up: method as in PMID 15978077; details: at concentrations greater than 1 μM; cited from earlier work
[6] = Bm-reporter, against 5 nM C8-AHL
[7] = Ec-reporter, against 10 nM C8-AHL
[8] = Table S3, Ec-reporter, against 10 nM C8-AHL

Structure (SMILES)	Maximal Inhibition (%) (CepR [1]; [6])	IC50 (CepR [2]; [7]) [µM]	Maximal Inhibition (%) (CepR [2]; [7])	Act% (CepR [4]) [%]	Inh% (100-Act%) (CepR [2]; [8]) [%]	Inh% (100-Act%) (CepR [1]; Table S5, Bm-reporter) [%]	also measured
O=C(Cc1ccc(F)c(C(F)(F)F)c1)N[C@H]1CCOC1=O [Compound E10]	21	0.43	79	13	–	–	Act% (CepR [3]): 11%
O=C(Cc1ccc([N+](=O)[O-])cc1)N[C@H]1CCOC1=O [Compound C13]	96	–	–	1.1	79	–	CepR antagonism in words (CepR [1]; Bm-reporter): bring reporter activity down to nearly zero; IC50 (CepR [1]; [6]): 3.6 µM; IC50 (CepR [2]; Table S3, Ec-reporter): 6.7 µM
O=C(Cc1ccccc1Br)N[C@H]1CCOC1=O [Compound C9]	–	–	–	0.3	52	99	IC50 (CepR [2]; Table S3, Ec-reporter): 40 µM
O=C(COc1cccc([N+](=O)[O-])c1)N[C@H]1CCOC1=O [Compound E25]	83	3	70	25	–	–	IC50 (CepR [1]; Table S5, Bm-reporter): ≥ 3.3 µM
CSc1cccc(CC(=O)NC2CCOC2=O)c1 (stereo not drawn) [Compound E7]	97	3.1	76	5.9	–	–	CepR antagonism in words (CepR [1]; Bm-reporter): bring reporter activity down to nearly zero; IC50 (CepR [1]; [6]): 4 µM
O=C(Cc1cccc(I)c1)N[C@H]1CCOC1=O [Compound C11]	–	–	–	43	27	80	IC50 (CepR [1]; Table S5, Bm-reporter): 1.6 µM; Act% (CepR [3]): 2.3%
CCCCCCCCCC(=O)CC(=O)Nc1ccccc1O [Control 14, reference compound]	–	–	–	30	30	25	–
N#Cc1cccc(CC(=O)N[C@H]2CCOC2=O)c1 [Compound E5]	43	2.7	81	4.9	–	–	–
CCCCCCS(=O)(=O)N[C@H]1CCOC1=O [Compound A11]	–	–	78	-5.0	–	84	CepR agonism in words (CepR [4]; Ec-reporter): failed to activate CepR; Maximal Activation (%) (CepR [4]; Ec-reporter): −5.0%
O=C(Cc1cccc([N+](=O)[O-])c1)NC1CCOC1=O (stereo not drawn) [Compound C14]	54	1.4	46	16	–	–	IC50 (CepR [1]; [6]): 0.62 µM
O=C(Cc1ccccc1I)N[C@H]1CCOC1=O [Compound C12]	–	–	–	-0.4	72	104	IC50 (CepR [2]; Table S3, Ec-reporter): 22 µM
C#CCCCC(=O)NC1CCOC1=O (stereo not drawn) [5-hexynoyl-HL]	–	–	–	–	–	–	Effect on CepR (CepR [5]): slight inhibitory effects
CCCCCC(=O)N[C@H]1CCOC1=O [Compound C6-AHL, hexanoyl L-homoserine lactone, reference compound]	20	7.5	83	87	–	–	EC50 (CepR [4]; Ec-reporter, agonism dose-response): ≥ 20 µM; Maximal Activation (%) (CepR [4]; Ec-reporter): 87%; Effect on CepR (CepR [5]): slight inhibitory effects
O=C(Cc1cccc2ccccc12)N[C@H]1CCOC1=O [Compound E13]	13	–	–	2.5	50	–	IC50 (CepR [2]; Table S3, Ec-reporter): 4.9 µM
O=C(N[C@H]1CCOC1=O)C1CCCC1 [Compound S4]	93	32	72	0.2	–	–	IC50 (CepR [1]; [6]): 3.7 µM
N#Cc1ccc(CC(=O)N[C@H]2CCOC2=O)cc1 [Compound E4]	–	–	–	0.2	29	97	IC50 (CepR [1]; Table S5, Bm-reporter): ≥ 4.5 µM
O=C(Cc1cccc(Cl)c1)N[C@H]1CCOC1=O [Compound C6]	–	39	66	3.2	–	98	–
O=C(Nc1ccccc1NC(=O)c1cccc(Cl)c1)c1cccc(Cl)c1 [TP-5, reference compound]	–	–	–	0.4	24	15	–
O=C(Cc1ccccc1[N+](=O)[O-])N[C@H]1CCOC1=O [Compound C15]	–	–	–	1.4	79	95	–
O=C(Cc1ccccc1Cl)N[C@H]1CCOC1=O [Compound C7]	–	5.9	89	0.3	–	95	–
